The text below walks through data of publication PMC8325676, “The tea plant CsLHT1 and CsLHT6 transporters take up amino acids, as a nitrogen source, from the soil of organic tea plantations” (Horticulture Research, 2021).

The subject of one data set is CsLHT1. As to conditions: 10-500 µM 15N-Glu, 10 min, 30°C; labelled compound.
Substrate in data set [1]: N[C@@H](CCC(=O)O)C(=O)O
Put plainly: cells, lysate or membranes. It is filed as cell-based, Camellia sinensis. As to conditions: 0.5-20 mM 15N-Glu, 10 min, 30°C, labelled compound.

Take `N[C@@H](CCC(=O)O)C(=O)O` [15N-Glu]: the Km in the data set on CsLHT1 is 39.9 µM.

B1: CsLHT6 (Camellia sinensis) (protein)
chain: MVSNSPPAPKEVPTEEDQWTEKGPPREAKWWYSTFHTVTAMVGAGVLSLPYAMAYLGWGPGTMLLVFSWCITLNTMWQMIQLHECVPGVRFDHYYDLGRHAFGPKLGPWIVLPQQLIVQVGCDIVYMVTGGKCLKKFMEIVCTNCTRIKQSYWICIFGSTHFFLSQLPNFNSVSGVSLAAAIMSLSYSTIAWVGCLSKGRVENVSYAYKKTSGADSMFRVFNALGEITFAYAGHAVVLEIQATVPSTPEMPSKVPMWKGAVWAYFINAICYFPVALIGYWAFGQDVADNVLVALERPSWLIAAANLMVVIHVIGSYQVYAMPVFDLLEKAMVKRLSFPPGIGLRIIVRSAYVAFTLFVGVTFPFFGDLLGFFGGFGFAPTSYFLPSIIWLIIKKPKRFSISWFINWACIYIGVFVMLASTIGGLRNIVIDSSTYEFYS
notes: cloned from root cDNA
In the case of B1, in data set [1], the Michaelis constant (Km) is 2500 µM.

What is called Km is the substrate concentration at which the rate is half of its maximum.
